What all share (type): cell-based
Assay [1] addresses T1, human somatostatin receptor subtype 2a (Homo sapiens, UniProt P30874).
T1 construct: expressed in transfected cells
As to the kind of experiment: cAMP assay for SSTR2a agonists (HTRF cAMP kit, NKH-477 stimulated). Particulars: CHO cells stably expressing human SSTR2a, 1.6 μM NKH-477. As for the experimental part: (§1) Chinese hamster ovary (CHO) cells stably expressing one of the six human or rodent somatostatin receptor subtypes are grown to 85-100% confluence on standard tissue culture dishes in F12-Ham's growth media (Hyclone) with following additives: 10% donor calf serum (Hyclone), 200 U/mL penicillin (Hyclone), 200 μg/mL streptomycin (Hyclone), 20 mM HEPES (Hyclone), 200 μg/mL hygromycin Hyclone.
(§2) General overview: All SSTR subtypes are Gi coupled G-protein coupled receptors (GPCRs) that lead to decreases in intracellular cyclic AMP (cAMP) when activated by an agonist. Therefore, measurement of intracellular cAMP levels can be used to assess whether compounds of the invention are agonists of SSTR subtypes (John Kelly, Troy Stevens, W. Joseph Thompson, and Roland Seifert, Current Protocols in Pharmacology, 2005, 2.2.1-2.2). One example of an intracellular cAMP assay is described below.
Four days prior to the assay, 5000 Chinese hamster ovary (CHO) cells stably expressing the human somatostatin receptor subtype 2a are plated in each well of a 96-well tissue culture plate (Nest Biotech Cell, flat bottom with low evaporation tissue culture treated; Polystyrene; Non-Pyrogenic) in F12-Ham's media (100 μL/well) supplemented with 200 μg/mL of hygromycin. Incubate at 37 C, 5% CO2, 95% humidity for four days. The cells should reach full confluence. On the day of the assay, various dilutions of the compounds of the invention are prepared in assay buffer (HRTF cAMP kit, Cisbio) in the presence of 1.6 μM NKH-477 (a water-soluble forskolin derivative) and 50 μL of the dilutions are added to the cultured cells and incubated for 20 minutes at 37° C. […] 50 μL of lysis buffer (HRTF cAMP kit, Cisbio) is added to each well and incubated at room temperature for 30 minutes, after which 150 μL assay buffer is added to each well. In a 384-well plate (Grenier, 784-080), 10 μL of assay mixture is added to 10 μL of developing mixture, containing cAMP detection and visualization antibodies are added and the assay is allowed incubate for 1-24 hours at room temperature. The intracellular cAMP concentrations are then measured using a commercially available detection kit (for example, the cAMP HTRF kit, Cisbio). The measured intracellular cAMP concentrations are plotted vs. the concentration of the compounds of the invention and the EC50 of the compounds are calculated using standard methods.
(Changes in cAMP serve as a functional read-out for many G protein-coupled receptors.)

The target of a further assay is T2, SSTR4 (Homo sapiens, UniProt P31391).
T2 construct: expressed in transfected cells
As to the kind of experiment: cAMP functional agonist assay, CHO cells expressing SSTR4. As to the method: as §1
(§3) General overview: All SSTR subtypes are Gi coupled G-protein coupled receptors (GPCRs) that lead to decreases in intracellular cyclic AMP (cAMP) when activated by an agonist. […] One example of an intracellular cAMP assay is described below.

In another assay the target is T3, SSTR5 (Homo sapiens, UniProt P35346).
T3 construct: expressed in transfected cells
As to the kind of experiment: cAMP functional agonist assay, CHO cells expressing SSTR5. Conditions: CHO cells stably expressing SSTR5, cAMP. As for the experimental part:
as §1, §2

For a further assay, the target named is SSTR3 (UniProt P32745). As to the kind of experiment: cAMP functional agonist assay, CHO cells expressing SSTR3. Particulars: CHO cells stably expressing SSTR3, cAMP. As for the experimental part:
as §1, §2

A further assay has as its target T4, SSTR1 (Homo sapiens, UniProt P30872).
T4 construct: expressed in transfected cells
As to the kind of experiment: cAMP functional agonist assay, CHO cells expressing SSTR1. As to the method:
as §1, §3

Setting [2] is: CHO cells stably expressing SSTR4, cAMP, read-out: SSTR4 EC50.

The results in this text go back to patent US9957267B2, “Somatostatin modulators and uses thereof” (Crinetics Pharmaceuticals, Inc., priority 2015, dated 2018).

Where two headings read alike, the source gives them in different places. Where only a bound is given, the exact number is not on record here.

Sequence of SSTR3 (P32745 whole entry): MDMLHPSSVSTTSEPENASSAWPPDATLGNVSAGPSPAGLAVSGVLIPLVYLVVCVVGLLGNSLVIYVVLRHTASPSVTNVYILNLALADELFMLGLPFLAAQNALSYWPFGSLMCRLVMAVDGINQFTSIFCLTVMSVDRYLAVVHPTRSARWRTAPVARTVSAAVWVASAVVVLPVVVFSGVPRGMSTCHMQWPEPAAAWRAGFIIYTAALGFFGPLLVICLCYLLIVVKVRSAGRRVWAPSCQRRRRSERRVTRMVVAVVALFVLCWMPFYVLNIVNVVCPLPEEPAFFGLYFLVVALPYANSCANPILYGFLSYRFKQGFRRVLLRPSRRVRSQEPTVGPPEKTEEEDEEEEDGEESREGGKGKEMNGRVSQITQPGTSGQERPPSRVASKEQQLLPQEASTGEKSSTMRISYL
T1 sequence (P30874 whole entry): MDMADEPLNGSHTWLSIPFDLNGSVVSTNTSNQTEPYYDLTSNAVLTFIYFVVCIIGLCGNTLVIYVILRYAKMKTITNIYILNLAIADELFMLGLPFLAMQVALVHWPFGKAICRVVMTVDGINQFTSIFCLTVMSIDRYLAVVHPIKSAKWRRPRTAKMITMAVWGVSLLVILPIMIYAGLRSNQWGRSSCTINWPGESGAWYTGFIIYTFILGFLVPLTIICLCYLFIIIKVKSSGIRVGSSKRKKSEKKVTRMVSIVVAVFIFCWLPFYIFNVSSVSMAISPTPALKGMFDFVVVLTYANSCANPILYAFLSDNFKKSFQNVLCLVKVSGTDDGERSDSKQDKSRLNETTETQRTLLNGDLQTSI
T3 sequence (P35346 whole entry): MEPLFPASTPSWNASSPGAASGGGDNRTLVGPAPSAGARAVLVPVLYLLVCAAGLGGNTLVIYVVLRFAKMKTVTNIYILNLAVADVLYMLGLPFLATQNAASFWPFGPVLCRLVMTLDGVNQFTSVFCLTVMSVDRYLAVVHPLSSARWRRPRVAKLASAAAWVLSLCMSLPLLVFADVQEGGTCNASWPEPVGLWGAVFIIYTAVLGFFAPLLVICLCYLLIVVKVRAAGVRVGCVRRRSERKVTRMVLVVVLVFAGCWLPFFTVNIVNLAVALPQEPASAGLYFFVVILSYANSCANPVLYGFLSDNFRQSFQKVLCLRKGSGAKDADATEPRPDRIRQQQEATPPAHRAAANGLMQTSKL
T2 sequence (P31391 whole entry): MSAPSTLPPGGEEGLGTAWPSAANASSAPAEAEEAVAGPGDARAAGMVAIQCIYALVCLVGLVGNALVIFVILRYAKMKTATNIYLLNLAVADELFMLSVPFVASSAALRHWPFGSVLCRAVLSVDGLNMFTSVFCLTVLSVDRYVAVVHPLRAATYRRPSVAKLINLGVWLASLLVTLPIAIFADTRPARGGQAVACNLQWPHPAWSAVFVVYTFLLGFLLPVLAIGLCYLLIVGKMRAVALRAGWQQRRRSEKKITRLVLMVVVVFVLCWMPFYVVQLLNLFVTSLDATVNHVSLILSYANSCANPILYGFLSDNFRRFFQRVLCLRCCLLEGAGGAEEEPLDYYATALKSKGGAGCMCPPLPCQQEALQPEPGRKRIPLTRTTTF
T4 sequence (P30872 whole entry): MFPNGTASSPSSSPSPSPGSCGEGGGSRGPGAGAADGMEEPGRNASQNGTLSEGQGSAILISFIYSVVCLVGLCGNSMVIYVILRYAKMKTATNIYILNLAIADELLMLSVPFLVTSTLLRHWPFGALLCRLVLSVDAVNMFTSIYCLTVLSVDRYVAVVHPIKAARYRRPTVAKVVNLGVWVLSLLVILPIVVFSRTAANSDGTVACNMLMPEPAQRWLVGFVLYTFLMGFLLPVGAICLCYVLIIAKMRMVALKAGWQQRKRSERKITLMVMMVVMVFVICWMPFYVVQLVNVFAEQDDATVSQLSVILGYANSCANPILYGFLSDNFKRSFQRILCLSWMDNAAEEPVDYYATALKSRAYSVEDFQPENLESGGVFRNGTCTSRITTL

What is called EC50 is the concentration at which the effect is half-maximal. As for “3-[5-({[(2S)-2-aminobutyl](methyl)amino}methyl)-6-(3,5-dimethylphenyl)-4-oxo-3H,4H-pyrido[2,3-d]pyrimidin-3-yl]-5-fluorobenzamide [Compound A-64]”, the 50% effective concentration (EC50) was < 100 nM in assay [1], 100 to 10000 nM on SSTR4 (setting [2]), 100 to 10000 nM at SSTR5 and 100 to 10000 nM on SSTR3.

As for `Cc1cc(C)cc(-c2cnc3ncn(-c4cccc(O)c4)c(=O)c3c2CN(CCN)Cc2ccccc2)c1` [Compound A-5, 5-{[(2-aminoethyl)(benzyl)amino]methyl}-6-(3,5-dimethylphenyl)-3-(3-hydroxyphenyl)-3H,4H-pyrido[2,3-d]pyrimidin-4-one], the EC50 in assay [1] is 100 to 10000 nM; on SSTR4 (setting [2]), < 100 nM; on SSTR5, > 10000 nM; on SSTR3, 100 to 10000 nM.

`Cc1cc(C)cc(-c2cnc3ncn(-c4cccc(O)c4)c(=O)c3c2CN(C)CCNCc2ccccc2)c1` [Compound A-6, 5-({[2-(benzylamino)ethyl](methyl)amino}methyl)-6-(3,5-dimethylphenyl)-3-(3-hydroxyphenyl)-3H,4H-pyrido[2,3-d]pyrimidin-4-one]: the results for the 50% effective concentration (EC50) (in assay [1]; on SSTR4 (setting [2]); at SSTR5) were 100 to 10000 nM, 100 to 10000 nM and > 10000 nM, respectively.

Regarding `Cc1ccccc1-c1cnc2ncn(-c3cccc(O)c3)c(=O)c2c1CN(C)CC1CCCCN1` (centres unmarked) [Compound A-20, 3-(3-hydroxyphenyl)-5-{[methyl(piperidin-2-ylmethyl)amino]methyl}-6-(2-methylphenyl)-3H,4H-pyrido[2,3-d]pyrimidin-4-one], the EC50 in assay [1] was 100 to 10000 nM; on SSTR4 (setting [2]), < 100 nM; at SSTR5, > 10000 nM; on SSTR3, 100 to 10000 nM.

`CC(C)c1cccc(-c2cnc3ncn(-c4cccc(O)c4)c(=O)c3c2CN(C)CC2CCCCN2)c1` (centres unmarked) [Compound A-22, 3-(3-hydroxyphenyl)-5-{[methyl(piperidin-2-ylmethyl)amino]methyl}-6-[3-(propan-2-yl)phenyl]-3H,4H-pyrido[2,3-d]pyrimidin-4-one]: the EC50 in assay [1] was 100 to 10000 nM; at SSTR4 (setting [2]), < 100 nM.

For `COc1cccc(-c2cnc3ncn(-c4cccc(O)c4)c(=O)c3c2CN(C)CC2CCCCN2)c1` (centres unmarked) [Compound A-23, 3-(3-hydroxyphenyl)-6-(3-methoxyphenyl)-5-{[methyl(piperidin-2-ylmethyl)amino]methyl}-3H,4H-pyrido[2,3-d]pyrimidin-4-one], the EC50 (in assay [1]; at SSTR4 (setting [2]); on SSTR3) was < 100 nM throughout.

Consider `Cc1c(F)cccc1-c1cnc2ncn(-c3cccc(O)c3)c(=O)c2c1CN(C)CC1CCCCN1` (centres unmarked) [Compound A-26, 6-(3-fluoro-2-methylphenyl)-3-(3-hydroxyphenyl)-5-{[methyl(piperidin-2-ylmethyl)amino]methyl}-3H,4H-pyrido[2,3-d]pyrimidin-4-one], for which the concentration for a half-maximal effect (EC50) in assay [1] was < 100 nM; at SSTR4 (setting [2]), < 100 nM; at SSTR5, 100 to 10000 nM; on SSTR3 it was < 100 nM.

`Cc1cc(Cl)cc(-c2cnc3ncn(-c4cccc(C(N)=O)c4)c(=O)c3c2CN(C)C[C@@H]2CCCN2)c1` [Compound A-31, 3-[6-(3-chloro-5-methylphenyl)-5-({methyl[(2S)-pyrrolidin-2-ylmethyl]amino}methyl)-4-oxo-3H,4H-pyrido[2,3-d]pyrimidin-3-yl]benzamide]: the EC50 in assay [1] was < 100 nM; at SSTR4 (setting [2]) it was < 100 nM; on SSTR3, 100 to 10000 nM.

With `Cc1cc(CO)cc(-c2cnc3ncn(-c4cccc(O)c4)c(=O)c3c2CN(C)C[C@@H]2CCCN2)c1` [Compound A-37, 6-[3-(hydroxymethyl)-5-methylphenyl]-3-(3-hydroxyphenyl)-5-({methyl[(2S)-pyrrolidin-2-ylmethyl]amino}methyl)-3H,4H-pyrido[2,3-d]pyrimidin-4-one], the EC50 in assay [1] is < 100 nM; on SSTR4 (setting [2]) it was < 100 nM; at SSTR5, > 10000 nM; on SSTR3, 100 to 10000 nM.

Regarding `Cc1cc(C)cc(-c2cnc3ncn(-c4cccc(C#N)c4)c(=O)c3c2CN(C)C[C@@H]2CCCN2)c1` [Compound A-42, 3-[6-(3,5-dimethylphenyl)-5-({methyl[(2S)-pyrrolidin-2-ylmethyl]amino}methyl)-4-oxo-3H,4H-pyrido[2,3-d]pyrimidin-3-yl]benzonitrile], the EC50 on SSTR4 is < 100 nM; on SSTR1, 100 to 10000 nM; at SSTR5, > 10000 nM; at SSTR3 it was 100 to 10000 nM.

For the compound `Cc1cc(C)cc(-c2cnc3ncn(-c4cc(C)cc(O)c4)c(=O)c3c2CN(C)C[C@@H]2CCCN2)c1` [Compound A-44, 6-(3,5-dimethylphenyl)-3-(3-hydroxy-5-methylphenyl)-5-({methyl[(2S)-pyrrolidin-2-ylmethyl]amino}methyl)-3H,4H-pyrido[2,3-d]pyrimidin-4-one], the half-maximal effective concentration (EC50) is < 100 nM at SSTR4, 100 to 10000 nM on SSTR1, > 10000 nM at SSTR5 and < 100 nM at SSTR3.

Take `Cc1cc(C)cc(-c2cnc3ncn(-c4cc(O)cc(F)c4)c(=O)c3c2CN(C)C[C@@H]2CCCN2)c1` [Compound A-45, 6-(3,5-dimethylphenyl)-3-(3-fluoro-5-hydroxyphenyl)-5-({methyl[(2S)-pyrrolidin-2-ylmethyl]amino}methyl)-3H,4H-pyrido[2,3-d]pyrimidin-4-one]: the EC50 is < 100 nM on SSTR4, 100 to 10000 nM on SSTR1, > 10000 nM on SSTR5 and < 100 nM at SSTR3.

As for `Cc1cc(C)cc(-c2cnc3ncn(-c4cc(F)cc(C#N)c4)c(=O)c3c2CN(C)C[C@@H]2CCCN2)c1` [Compound A-46, 3-[6-(3,5-dimethylphenyl)-5-({methyl[(2S)-pyrrolidin-2-ylmethyl]amino}methyl)-4-oxo-3H,4H-pyrido[2,3-d]pyrimidin-3-yl]-5-fluorobenzonitrile], the EC50 in assay [1] is 100 to 10000 nM; at SSTR4 (setting [2]) it was < 100 nM; on SSTR3, 100 to 10000 nM.

Take `Cc1cc(Cl)cc(-c2cnc3ncn(-c4cc(O)cc(OC(F)(F)F)c4)c(=O)c3c2CN(C)C[C@@H]2CCCN2)c1` [Compound A-52, 6-(3-chloro-5-methylphenyl)-3-[3-hydroxy-5-(trifluoromethoxy)phenyl]-5-({methyl[(2S)-pyrrolidin-2-ylmethyl]amino}methyl)-3H,4H-pyrido[2,3-d]pyrimidin-4-one]: the EC50 was < 100 nM in assay [1], < 100 nM on SSTR4 (setting [2]), > 10000 nM on SSTR5 and 100 to 10000 nM on SSTR3.

In the case of `CCN(CCN)Cc1c(-c2cc(C)cc(Cl)c2)cnc2nc(C)n(-c3cc(O)cc(F)c3)c(=O)c12` [Compound A-67, 5-{[(2-aminoethyl)(ethyl)amino]methyl}-6-(3-chloro-5-methylphenyl)-3-(3-fluoro-5-hydroxyphenyl)-2-methyl-3H,4H-pyrido[2,3-d]pyrimidin-4-one], the figures for the EC50 (in assay [1]; at SSTR4 (setting [2]); at SSTR3) were < 100 nM, < 100 nM and 100 to 10000 nM, respectively.

Turning to `CN(Cc1c(-c2cccc3ccccc23)cnc2ncn(-c3cccc(O)c3)c(=O)c12)CC1CCCCN1` (centres unmarked) [Compound A-69, 3-(3-hydroxy-phenyl)-5-[(methyl-piperidin-2-ylmethyl-amino)-methyl]-6-naphthalen-1-yl-3H-pyrido[2,3-d]pyrimidin-4-one], the EC50 (in assay [1]; on SSTR4 (setting [2]); on SSTR3) was < 100 nM in each case.

Consider `Cc1cc(Cl)cc(-c2cnc3ncn(-c4cc(O)cc(C#N)c4)c(=O)c3c2CN(C)C[C@@H]2CCCN2)c1` [Compound A-71, 6-(3-methyl-5-chlorophenyl)-3-(3-cyano-5-hydroxyphenyl)-5-({methyl[(2S)-pyrrolidin-2-ylmethyl]amino}methyl)-3H,4H-pyrido[2,3-d]pyrimidin-4-one], for which the half-maximal effective concentration (EC50) (in assay [1]; on SSTR4 (setting [2]); on SSTR3) was < 100 nM throughout.
